Data set [1] has as its system human umbilical vein endothelial cells (HUVECs). The settings on record: cited from earlier work.
A further data set addresses T1, homodimeric VEGF165 (Homo sapiens, UniProt P15692).
T1 sequence (P15692 1-191 isoform P15692-4): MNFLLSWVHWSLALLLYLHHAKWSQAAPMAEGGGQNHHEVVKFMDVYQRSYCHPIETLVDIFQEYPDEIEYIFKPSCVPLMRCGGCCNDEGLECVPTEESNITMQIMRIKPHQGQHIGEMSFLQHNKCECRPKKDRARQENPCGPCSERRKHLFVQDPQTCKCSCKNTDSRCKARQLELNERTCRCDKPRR
Description: competition fluorescence polarization. It is filed as binding. A general note: In fluorescence polarisation assays a small probe gives low polarisation when free and higher when bound to something large.

Another data set can be described thus: toxicity control studies. The settings on record: at the inhibitory concentrations.
A further data set deals with proteinase K (Parengyodontium album, UniProt P06873). Description: proteinase K degradation. The settings on record: for stability to proteinase K relative to v114*: ratio of t1/2 to that of v114*, standard conditions.
Data set [2] has as its system human umbilical vein endothelial cells (HUVECs). Briefly: VEGF-induced HUVEC proliferation. The settings on record: 10 ng/mL VEGF; tested above and below the measured Ki.
The target in a further data set is T2, v114 (disulfide 5-15).
T2 chain: VEPNCDIHVMWEWECFERL
Description: competition fluorescence polarization.

Another data set deals with v107. Briefly: competition.

Several values for one entry are separate records, joined by “and”; a condition that tells them apart may be missing. Equal values may be shown once. Read-outs that look alike come from different tables or passages of the source. Marks after values point to notes of the source that are not given here. Numbered stars: 1 amine (or outer) side, 2 acyl side, 3 side chain; on linkers, the order of the positions; unused ones are H or OH. Bridge positions count the residues as written; N and C are the ends. Square brackets hold non-standard residues; d marks the D form. Ends that are not written are not given here. Peptide text beside a SMILES is read from it. β3hW = N[C@H](CC(=O)O)Cc1c[nH]c2ccccc12; X1 = O=C([C@H]1CNC[C@@H]1N[*:1])[*:2]; β3hE = N[C@@H](CCC(=O)O)CC(=O)O; β3hN = NC(=O)C[C@H](N)CC(=O)O; β3hL = CC(C)C[C@H](N)CC(=O)O; Nle = CCCC[C@H](N)C(=O)O

Usually Ki stands for the dissociation constant of the complex between target and ligand, obtained from inhibition or displacement. A low value points to tighter binding.

Sequence of proteinase K (P06873 106-384): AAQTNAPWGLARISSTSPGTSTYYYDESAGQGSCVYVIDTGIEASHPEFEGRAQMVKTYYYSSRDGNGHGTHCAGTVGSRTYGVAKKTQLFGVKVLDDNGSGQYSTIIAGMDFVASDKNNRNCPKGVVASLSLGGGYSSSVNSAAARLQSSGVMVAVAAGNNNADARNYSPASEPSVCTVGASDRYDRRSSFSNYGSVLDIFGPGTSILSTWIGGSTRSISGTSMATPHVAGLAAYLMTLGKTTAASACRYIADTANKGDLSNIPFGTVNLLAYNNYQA

Consider `CC[C@H](C)[C@@H]1NC(=O)[C@H](CC(=O)O)NC(=O)[C@@H](NC(=O)[C@H](CC(N)=O)NC(=O)[C@@H]2CCCN2C(=O)[C@H](CCC(=O)O)NC(=O)[C@@H](N)C(C)C)CSSC[C@@H](C(=O)N[C@@H](Cc2ccccc2)C(=O)N[C@@H](CCC(=O)O)C(=O)N[C@@H](CCCNC(=N)N)C(=O)N[C@@H](CC(C)C)C(N)=O)NC(=O)[C@H](CCC(=O)O)NC(=O)[C@H](Cc2c[nH]c3ccccc23)NC(=O)[C@H](CCC(=O)O)NC(=O)[C@H](Cc2c[nH]c3ccccc23)NC(=O)[C@H](CCSC)NC(=O)[C@H](C(C)C)NC(=O)[C@H](Cc2c[nH]cn2)NC1=O` [v114] (H-VEPNCDIHVMWEWECFERL-NH2; disulfide 5-15; N-terminus and C-terminus assumed), for which the “inhibition of VEGF-induced HUVEC proliferation” value in data set [1] is listed as “inhibits”.

In the case of `CCCC[C@@H]1NC(=O)[C@H](C(C)C)NC(=O)[C@H](Cc2c[nH]cn2)NC(=O)[C@H]([C@@H](C)CC)NC(=O)[C@H](CC(=O)O)NC(=O)[C@@H](NC(=O)[C@H](CC(N)=O)NC(=O)[C@@H]2CCCN2C(=O)C[C@H](CCC(=O)O)NC(=O)[C@@H](N)C(C)C)CSSC[C@@H](C(=O)N[C@@H](Cc2ccccc2)C(=O)N[C@H]2CNC[C@@H]2C(=O)N[C@@H](CCCNC(=N)N)C(=O)N[C@H](CC(N)=O)CC(C)C)NC(=O)[C@H](CCC(=O)O)NC(=O)[C@H](Cc2c[nH]c3ccccc23)NC(=O)C[C@H](CCC(=O)O)NC(=O)[C@H](Cc2c[nH]c3ccccc23)NC1=O` [compound 2] (H-V[β3hE]PNCDIHV[Nle]W[β3hE]WECF[X1]R[β3hL]-NH2; disulfide 5-15; N-terminus and C-terminus assumed), the “loss of affinity for VEGF (higher Ki) relative to v114*” value (“loss … (higher Ki) relative to v114*” below) on homodimeric VEGF165 (ratio of Ki to Ki of v114*) amounted to 12 fold.

With `CCCC[C@@H]1NC(=O)[C@H](C(C)C)NC(=O)[C@H](Cc2c[nH]cn2)NC(=O)[C@H]([C@@H](C)CC)NC(=O)[C@H](CC(=O)O)NC(=O)[C@@H](NC(=O)C[C@H](CC(N)=O)NC(=O)[C@@H]2CCCN2C(=O)C[C@H](CCC(=O)O)NC(=O)[C@@H](N)C(C)C)CSSC[C@@H](C(=O)N[C@@H](Cc2ccccc2)C(=O)N[C@H]2CNC[C@@H]2C(=O)N[C@@H](CCCNC(=N)N)C(=O)N[C@H](CC(N)=O)CC(C)C)NC(=O)[C@H](CCC(=O)O)NC(=O)[C@H](Cc2c[nH]c3ccccc23)NC(=O)C[C@H](CCC(=O)O)NC(=O)C[C@H](Cc2c[nH]c3ccccc23)NC1=O` [compound 4] (H-V[β3hE]P[β3hN]CDIHV[Nle][β3hW][β3hE]WECF[X1]R[β3hL]-NH2; disulfide 5-15; N-terminus and C-terminus assumed), the toxicity result in “toxicity control studies” is “not toxic”. The “resistance to proteolysis relative to 3” value at proteinase K is more than 10 fold. Besides, the “stability to proteinase K relative to v114*” value on proteinase K (proteinase K) is on record as approximately 190 fold. The “inhibition of VEGF-stimulated HUVEC proliferation, potency in words” value in data set [2] is “less potent than v114*”. Also, at homodimeric VEGF165, the “affinity for VEGF lower than that of 3” value is listed as ~ 3 fold and the “loss … (higher Ki) relative to v114*” value is reported as ~ 77 fold.

In the case of `CCCC[C@@H]1NC(=O)[C@H](C(C)C)NC(=O)[C@H](Cc2c[nH]cn2)NC(=O)[C@H]([C@@H](C)CC)NC(=O)[C@H](CC(=O)O)NC(=O)[C@@H](NC(=O)C[C@H](CC(N)=O)NC(=O)[C@@H]2CCCN2C(=O)C[C@H](CCC(=O)O)NC(=O)[C@@H](N)C(C)C)CSSC[C@@H](C(=O)N[C@@H](Cc2ccccc2)C(=O)N[C@H]2CNC[C@@H]2C(=O)N[C@@H](CCCNC(=N)N)C(=O)N[C@H](CC(N)=O)CC(C)C)NC(=O)[C@H](CCC(=O)O)NC(=O)[C@H](Cc2c[nH]c3ccccc23)NC(=O)C[C@H](CCC(=O)O)NC(=O)[C@H](Cc2c[nH]c3ccccc23)NC1=O` [compound 3] (H-V[β3hE]P[β3hN]CDIHV[Nle]W[β3hE]WECF[X1]R[β3hL]-NH2; disulfide 5-15; N-terminus and C-terminus assumed), the toxicity result in “toxicity control studies” is “not toxic”. Also, the principal cleavage site entry at proteinase K (proteinase K, mass spectroscopic analysis) was “between ^nL10 and W11”. Further, the “stability to proteinase K relative to v114*” value on proteinase K (proteinase K) was 15 fold. For the same molecule, the “inhibition of VEGF-stimulated HUVEC proliferation, potency in words” value in data set [2] is recorded as “less potent than v114*”. The “loss … (higher Ki) relative to v114*” value on homodimeric VEGF165 (ratio of Ki to Ki of v114*) is 27 fold and ~ 27 fold.

B1: VEGF165 VEGF165 (protein)
chain: APMAEGGGQNHHEVVKFMDVYQRSYCHPIETLVDIFQEYPDEIEYIFKPSCVPLMRCGGCCNDEGLECVPTEESNITMQIMRIKPHQGQHIGEMSFLQHNKCECRPKKDRARQEKKSVRGKGKGQKRKRKKSRYKSWSVPCGPCSERRKHLFVQDPQTCKCSCKNTDSRCKARQLELNERTCRCDKPRR
On to B1, for which the inhibition constant (Ki) with v114 was determined as 70 nM; with v107 it was 600 nM.

(Values after PMC3551614 (Journal of the American Chemical Society, 2012).)
